Assay results taken from US7799809B2, “Carboxamide compounds and their use as calpain inhibitors” (Abbott GmbH & Co. KG, priority 2006, dated 2010).

Columns and labels:
Format in all cases: biochemical
[1] = target: T1, cathepsin B (Homo sapiens, UniProt P07858); experiment: Cathepsin B enzyme inhibition in vitro (kinetic fluorescence assay); settings: cathepsin B isolated from human liver vs calpain I
T1 construct: cathepsin B—isolated from human liver (Calbiochem #219362); purchased Calbiochem 219362; host or cells: human liver (tissue-derived)
Method: (§1) The following solutions and buffers were employed: • HBS (for 40 ml): 800 μl M HEPES; 2.16 ml 100 mM KCl; 4.8 ml 1M NaCl; 3.59 ml 5% glucose; 60 μl μM MgSO4; 400 μl 100 mM Na pyruvate, 28.19 ml water; pH 7.2-7.5. • lysis buffer (for 20 ml): 400 μl M Tris pH 8.2; 2.74 ml 1M NaCl; 520 μl 0.5M EDTA; 2 ml 10% triton X-100; 0.8 ml (=1:25) CompletePlus (1 tablet/2 ml H2O); 200 μl 100 mM Pefabloc; 13.34 ml water, pH 8.2. • TBST (10×) (for 1 l): 100 mM Tris (12.1 g); 1.5M NaCl (87 g); 1% Tween 20 (10 g), adjusted to pH 8. I Enzyme Inhibition In Vitro: • Testing for blockade of the corresponding enzymic activities was carried out by means of kinetic fluorescence assays (excitation 390 nm, emission 460 nm). • Apparent Ki values were calculated from the experimentally determined IC50 values by the Cheng-Prussoff relation assuming a reversible competitive enzyme inhibition. The Km values of the substrates used under the assay conditions indicated above were: 90 μM (Z-Phe-Arg-AMC, cathepsin B), 10 μM (Z-Gly-Pro-Arg-AMC, cathepsin K), 2 μM (Z-Phe-Arg-AMC, cathepsin L), and 30 μM (Z-Val-Val-Arg-AMC, cathepsin S). • The indicated Ki values are averages of the inhibition constants calculated on the basis of 2 to 4 independent dose-effect plots.
(§2) The following assays were used: • 1. Calpain I: • 20 nM calpain-I—isolated from human erythrocytes (Calbiochem #208713), 100 μM Suc-Leu-Tyr-AMC (Bachem #1-1355) as substrate in buffer with 62 mM imidazole, 0.3 mM CaCl2, 0.10% CHAPS, 0.05% BSA, 1 mM DTT at pH 7.3 and room temperature. • 2. Cathepsin B: • 0.25 nM cathepsin B—isolated from human liver (Calbiochem #219362), 100 μM Z-Phe-Arg-AMC (Bachem #I-1160) as substrate 50 mM MES, 2 mM EDTA, 0.05% Brij 35, 2.5 mM L-cysteine, pH 6.0, room temperature. • 3. Cathepsin K: • 3 nM cathepsin K—activated from recombinant human procathepsin K from E. coli (Calbiochem #342001), 10 μM Z-Gly-Pro-Arg-AMC (Biomol #P-142) as substrate in 50 mM MES, 2 mM EDTA, 0.05% Brij 35, 2.5 mM L-cysteine, pH 6.0, room temperature. • 4. Cathepsin L: • 1 nM cathepsin L—isolated from human liver (Calbiochem #219402), 2 μM Z-Phe-Arg-AMC (Bachem #1-1160) as substrate in 50 mM MES, 2 mM EDTA, 0.05% Brij 35, 2.5 mM L-cysteine, pH 6.0, room temperature. • 5. Cathepsin S: • 0.5 nM recombinant human cathepsin S from E. coli (Calbiochem #219343), 20 μM Z-Val-Val-Arg-AMC (Bachem #1-1540) as substrate in 50 mM MES, 2 mM EDTA, 0.05% Brij 35, 2.5 mM L-cysteine, pH 6.0, room temperature. • The results of the in vitro determination are indicated in Table 1. The following abbreviations are used in Table 1: • The “Calpain activity” column, ++ stands for a calpain Ki (Ki(calpain)) of ≦40 nM and + means: 40 nM<Ki(Calpain)≦100 nM. • The “Sel. cat. B” column indicates the Ki(cathepsin B)/Ki(calpain) ratio. In this connection, ++ means a Ki(cathepsin B)/Ki(calpain) ratio of ≧30 and + means 10≦Ki(cathepsin B)/Ki(calpain)<30. • The “Sel. cat. K” column indicates the Ki(cathepsin K)/Ki(calpain) ratio. In this connection, ++ means a Ki(cathepsin K)/Ki(calpain) ratio of ≧30 and + means 10≦Ki(cathepsin K)/Ki(calpain)<30. • The “Sel. cat. L” column indicates the Ki(cathepsin L)/Ki(calpain) ratio. In this connection, ++ means a Ki(cathepsin L)/Ki(calpain) ratio of ≧50 and + means 30≦Ki(cathepsin L)/Ki(calpain)<50. • The “Sel. cat. S” column indicates the Ki(cathepsin S)/Ki(calpain) ratio. In this connection, ++ means a Ki(cathepsin S)/Ki(calpain) ratio of ≧100 and + means 50≦Ki(cathepsin S)/Ki(calpain)<100.

[2] = target: T2, cathepsin L (Homo sapiens, UniProt P07711); experiment: Cathepsin L enzyme inhibition in vitro (kinetic fluorescence assay); settings: cathepsin L isolated from human liver vs calpain I
T2 construct: cathepsin L—isolated from human liver (Calbiochem #219402); purchased Calbiochem 219402; host or cells: human liver (tissue-derived)
Method: as §1, §2

[3] = target: T3, cathepsin K (Homo sapiens, UniProt P43235); experiment: Cathepsin K enzyme inhibition in vitro (kinetic fluorescence assay); settings: cathepsin K activated from recombinant human procathepsin K vs calpain I
T3 construct: purchased Calbiochem 342001; host or cells: E. coli
T3 sequence (P43235 115-329): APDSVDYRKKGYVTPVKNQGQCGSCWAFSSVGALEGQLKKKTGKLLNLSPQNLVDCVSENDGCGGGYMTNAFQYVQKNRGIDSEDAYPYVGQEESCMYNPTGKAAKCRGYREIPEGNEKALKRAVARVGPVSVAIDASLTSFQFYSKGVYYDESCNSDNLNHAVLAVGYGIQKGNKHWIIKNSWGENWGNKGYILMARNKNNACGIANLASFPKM
Method: as §1, §2

[4] = target: T4, cathepsin S (Homo sapiens, UniProt P25774); experiment: Cathepsin S enzyme inhibition in vitro (kinetic fluorescence assay); settings: recombinant human cathepsin S vs calpain I
T4 construct: purchased Calbiochem 219343; host or cells: E. coli
Outline: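 Kinetic fluorescence (ex 390/em 460 nm) at room temperature in 50 mM MES, 2 mM EDTA, 0.05% Brij 35, 2.5 mM L-cysteine, pH 6.0. Cathepsin B (liver, 0.25 nM) with 100 μM Z-Phe-Arg-AMC; cathepsin L (liver, 1 nM) with 2 μM Z-Phe-Arg-AMC; recombinant E. coli cathepsin S (0.5 nM) with 20 μM Z-Val-Val-Arg-AMC. Ki via Cheng-Prusoff.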

T4 sequence (P25774 115-331): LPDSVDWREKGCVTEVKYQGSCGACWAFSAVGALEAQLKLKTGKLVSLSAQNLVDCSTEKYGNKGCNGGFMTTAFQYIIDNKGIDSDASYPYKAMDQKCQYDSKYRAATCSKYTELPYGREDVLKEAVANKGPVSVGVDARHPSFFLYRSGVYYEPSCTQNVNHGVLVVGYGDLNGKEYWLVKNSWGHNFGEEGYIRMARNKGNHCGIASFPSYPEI
T2 sequence (P07711 114-333): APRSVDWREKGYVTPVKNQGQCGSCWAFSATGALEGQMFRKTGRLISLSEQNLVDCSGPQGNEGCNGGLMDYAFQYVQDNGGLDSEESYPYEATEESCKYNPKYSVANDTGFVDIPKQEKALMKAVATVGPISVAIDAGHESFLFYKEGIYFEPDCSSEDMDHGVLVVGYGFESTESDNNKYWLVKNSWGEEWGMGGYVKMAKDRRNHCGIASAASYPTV

Compound | Sel cat. B: Ki(cathepsin B)/Ki(calpain) ratio [1] | Sel cat. L: Ki(cathepsin L)/Ki(calpain) ratio [2] | Sel cat. K: Ki(cathepsin K)/Ki(calpain) ratio [3] | Sel cat. S: Ki(cathepsin S)/Ki(calpain) ratio [4]
NC(=O)C(=O)C(Cc1ccccc1)NC(=O)c1cc(Cl)cnc1-n1ccc(-c2ccccc2)n1 (stereo not shown) [Example 27, N-(3-Amino-1-benzyl-2,3-dioxopropyl)-5-chloro-2-(3-phenyl-1H-pyrazol-1-yl)nicotinamide] | ++ (++ means a Ki(cathepsin B)/Ki(calpain) ratio of ≧30) | + (+ means 30≦Ki(cathepsin L)/Ki(calpain)<50) | + (+ means 10≦Ki(cathepsin K)/Ki(calpain)<30) | 
Cl.NC(=O)C(=O)C(Cc1ccccc1)NC(=O)c1cccnc1-n1ccc(-c2ccc(N3CCOCC3)cc2)n1 (stereo not shown) [Example 29, N-(3-Amino-1-benzyl-2,3-dioxopropyl)-2-[3-(4-morpholin-4-ylphenyl)-1H-pyrazol-1-yl]nicotinamide hydrochloride] |  | ++ (++ means a Ki(cathepsin L)/Ki(calpain) ratio of ≧50) | + (+ means 10≦Ki(cathepsin K)/Ki(calpain)<30) | ++ (++ means a Ki(cathepsin S)/Ki(calpain) ratio of ≧100)
NC(=O)C(=O)C(Cc1ccccc1)NC(=O)c1cc(Cl)cnc1-n1ccc(-c2ccc(N3CCOCC3)cc2)n1 (stereo not shown) [Example 31, N-(3-Amino-1-benzyl-2,3-dioxopropyl)-5-chloro-2-[3-(4-morpholin-4-ylphenyl)-1H-pyrazol-1-yl]nicotinamide] | ++ (++ means a Ki(cathepsin B)/Ki(calpain) ratio of ≧30) | + (+ means 30≦Ki(cathepsin L)/Ki(calpain)<50) | + (+ means 10≦Ki(cathepsin K)/Ki(calpain)<30) | 
NC(=O)C(=O)C(CC1CCCCC1)NC(=O)c1cccnc1-n1ccc(-c2ccccc2)n1 (stereo not shown) [Example 66, N-[3-Amino-1-(cyclohexylmethyl)-2,3-dioxopropyl]-2-(3-phenyl-1H-pyrazol-1-yl)nicotinamide] |  | + (+ means 30≦Ki(cathepsin L)/Ki(calpain)<50) | + (+ means 10≦Ki(cathepsin K)/Ki(calpain)<30) | ++ (++ means a Ki(cathepsin S)/Ki(calpain) ratio of ≧100)
CN1CCN(c2ccc(-c3ccn(-c4ncccc4C(=O)NC(Cc4ccccc4)C(=O)C(N)=O)n3)cc2)CC1 (stereo not shown) [Example 68, N-(3-Amino-1-benzyl-2,3-dioxopropyl)-2-{3-[4-(4-methylpiperazin-1-yl)phenyl]-1H-pyrazol-1-yl}nicotinamide] |  |  | + (+ means 10≦Ki(cathepsin K)/Ki(calpain)<30) | ++ (++ means a Ki(cathepsin S)/Ki(calpain) ratio of ≧100)
NC(=O)C(=O)C(Cc1ccccc1)NC(=O)c1cccnc1-n1ccc(-c2cccc(N3CCCC3)c2)n1 (stereo not shown) [Example 74, N-(3-Amino-1-benzyl-2,3-dioxopropyl)-2-[3-(3-pyrrolidin-1-ylphenyl)-1H-pyrazol-1-yl]nicotinamide] | ++ (++ means a Ki(cathepsin B)/Ki(calpain) ratio of ≧30) |  | ++ (++ means a Ki(cathepsin K)/Ki(calpain) ratio of ≧30) | ++ (++ means a Ki(cathepsin S)/Ki(calpain) ratio of ≧100)
NC(=O)C(=O)C(Cc1ccccc1)NC(=O)c1cccnc1-n1ccc(-c2ccc3c(c2)CCO3)n1 (stereo not shown) [Example 75, N-(3-Amino-1-benzyl-2,3-dioxopropyl)-2-[3-(2,3-dihydrobenzo[b]furan-5-yl)-1H-pyrazol-1-yl]nicotinamide] |  | ++ (++ means a Ki(cathepsin L)/Ki(calpain) ratio of ≧50) | + (+ means 10≦Ki(cathepsin K)/Ki(calpain)<30) | ++ (++ means a Ki(cathepsin S)/Ki(calpain) ratio of ≧100)
NC(=O)C(=O)C(Cc1ccccc1)NC(=O)c1cccnc1-n1ccc(-c2cccc3cnccc23)n1 (stereo not shown) [Example 156, N-[3-Amino-2,3-dioxo-1-(phenylmethyl)propyl]-2-(3-isoquinolin-5-yl-1H-pyrazol-1-yl)pyridine-3-carboxamide] | + (+ means 10≦Ki(cathepsin B)/Ki(calpain)<30) | + (+ means 30≦Ki(cathepsin L)/Ki(calpain)<50) |  | ++ (++ means a Ki(cathepsin S)/Ki(calpain) ratio of ≧100)
N#Cc1cnc(-n2ccc(-c3ccccc3F)n2)c(C(=O)NC(Cc2ccccc2)C(=O)C(N)=O)c1 (stereo not shown) [Example 188, N-[3-Amino-2,3-dioxo-1-(phenylmethyl)propyl]-5-cyano-2-[3-(2-fluorophenyl)-1H-pyrazol-1-yl]pyridine-3-carboxamide] |  | ++ (++ means a Ki(cathepsin L)/Ki(calpain) ratio of ≧50) | ++ (++ means a Ki(cathepsin K)/Ki(calpain) ratio of ≧30) | 
NC(=O)C(=O)C(Cc1ccccc1)NC(=O)c1cccnc1-n1ccc(C2CCCCC2)n1 (stereo not shown) [Example 192, N-[3-Amino-2,3-dioxo-1-(phenylmethyl)propyl]-2-(3-cyclohexyl-1H-pyrazol-1-yl)pyridine-3-carboxamide] |  | ++ (++ means a Ki(cathepsin L)/Ki(calpain) ratio of ≧50) | + (+ means 10≦Ki(cathepsin K)/Ki(calpain)<30) | ++ (++ means a Ki(cathepsin S)/Ki(calpain) ratio of ≧100)
N-{3-Amino-1-[(4-fluorophenyl)methyl]-2,3-dioxopropyl}-2-[3-(2,3-dichlorophenyl)-1H-pyrazol-1-yl]pyridine-3-carboxamide [Example 161] | + (+ means 10≦Ki(cathepsin B)/Ki(calpain)<30) | + (+ means 30≦Ki(cathepsin L)/Ki(calpain)<50) |  | ++ (++ means a Ki(cathepsin S)/Ki(calpain) ratio of ≧100)
